Here are results for 14 compounds from BindingDB's records for doi:10.1016/j.bmcl.2003.09.069 (Sugen, 2003).

This assay can be described thus: Inhibitory activity against cellular Src protein tyrosine kinase using the actin ring assay.
For `CNS(=O)(=O)c1ccc2c(c1)/C(=C/c1[nH]c3c(c1CN1CCOCC1)CCCC3)C(=O)N2` [3-[1-(3-Morpholin-4-ylmethyl-4,5,6,7-tetrahydro-1H-indol-2-yl)-meth-(Z)-ylidene]-2-oxo-2,3-dihydro-1H-indole-5-sulfonic acid methylamide], the IC50 (commonly the concentration that inhibits the measured activity by half) was determined as 1000 nM.

In turn, `CNS(=O)(=O)c1ccc2c(c1)/C(=C/c1[nH]c3c(c1CCCN1CCN(CCO)CC1)CCCC3)C(=O)N2` [3-[1-(3-{3-[4-(2-Hydroxy-ethyl)-piperazin-1-yl]-propyl}-4,5,6,7-tetrahydro-1H-indol-2-yl)-meth-(Z)-ylidene]-2-oxo-2,3-dihydro-1H-indole-5-sulfonic acid methylamide] registered an IC50 of 3000 nM.

For the compound `CCS(=O)(=O)c1ccc2c(c1)/C(=C/c1[nH]c3c(c1CCCN(C)C)CCCC3)C(=O)N2` [3-[1-[3-(3-Dimethylamino-propyl)-4,5,6,7-tetrahydro-1H-indol-2-yl]-meth-(Z)-ylidene]-5-ethanesulfonyl-1,3-dihydro-indol-2-one], the IC50 was determined as 500 nM.

As to `CNS(=O)(=O)c1ccc2c(c1)/C(=C/c1[nH]c3c(c1CCCN1CCOCC1)CCCC3)C(=O)N2` [3-[1-[3-(3-Morpholin-4-yl-propyl)-4,5,6,7-tetrahydro-1H-indol-2-yl]-meth-(Z)-ylidene]-2-oxo-2,3-dihydro-1H-indole-5-sulfonic acid methylamide], the IC50 came to 100 nM.

With `CNS(=O)(=O)c1ccc2c(c1)/C(=C/c1[nH]c3c(c1CCCN1CCC(O)CC1)CCCC3)C(=O)N2` [3-[1-{3-[3-(4-Hydroxy-piperidin-1-yl)-propyl]-4,5,6,7-tetrahydro-1H-indol-2-yl}-meth-(Z)-ylidene]-2-oxo-2,3-dihydro-1H-indole-5-sulfonic acid methylamide], the IC50 stood at 900 nM.

`CNS(=O)(=O)c1ccc2c(c1)/C(=C/c1[nH]c3c(c1CCCN1CCN(C)CC1)CCCC3)C(=O)N2` [3-[1-{3-[3-(4-Methyl-piperazin-1-yl)-propyl]-4,5,6,7-tetrahydro-1H-indol-2-yl}-meth-(Z)-ylidene]-2-oxo-2,3-dihydro-1H-indole-5-sulfonic acid methylamide] registered an IC50 of 100 nM.

As for `CCS(=O)(=O)c1ccc2c(c1)/C(=C/c1[nH]c3c(c1CCC(N)=O)CCCC3)C(=O)N2` [3-{2-[5-Ethanesulfonyl-2-oxo-1,2-dihydro-indol-(3Z)-ylidenemethyl]-4,5,6,7-tetrahydro-1H-indol-3-yl}-propionamide], the IC50 was greater than 10000 nM.

`CNS(=O)(=O)c1ccc2c(c1)/C(=C/c1[nH]c3c(c1CCC(N)=O)CCCC3)C(=O)N2` [3-{2-[5-Methylsulfamoyl-2-oxo-1,2-dihydro-indol-(3Z)-ylidenemethyl]-4,5,6,7-tetrahydro-1H-indol-3-yl}-propionamide] showed an IC50 greater than 10000 nM.

As for `CCS(=O)(=O)c1ccc2c(c1)/C(=C/c1[nH]c3c(c1CN1CCOCC1)CCCC3)C(=O)N2` [5-Ethanesulfonyl-3-[1-(3-morpholin-4-ylmethyl-4,5,6,7-tetrahydro-1H-indol-2-yl)-meth-(Z)-ylidene]-1,3-dihydro-indol-2-one], the IC50 is 5000 nM.

Regarding `CCS(=O)(=O)c1ccc2c(c1)/C(=C/c1[nH]c3c(c1CCCN1CCN(CCO)CC1)CCCC3)C(=O)N2` [5-Ethanesulfonyl-3-[1-(3-{3-[4-(2-hydroxy-ethyl)-piperazin-1-yl]-propyl}-4,5,6,7-tetrahydro-1H-indol-2-yl)-meth-(Z)-ylidene]-1,3-dihydro-indol-2-one], the IC50 was determined as 1700 nM.

`CCS(=O)(=O)c1ccc2c(c1)/C(=C/c1[nH]c3c(c1CCCN1CCC(O)CC1)CCCC3)C(=O)N2` [5-Ethanesulfonyl-3-[1-{3-[3-(4-hydroxy-piperidin-1-yl)-propyl]-4,5,6,7-tetrahydro-1H-indol-2-yl}-meth-(Z)-ylidene]-1,3-dihydro-indol-2-one] showed an IC50 of 800 nM.

For `CCS(=O)(=O)c1ccc2c(c1)/C(=C/c1[nH]c3c(c1CCCN1CCN(CC(=O)O)CC1)CCCC3)C(=O)N2` [[4-(3-{2-[5-Ethanesulfonyl-2-oxo-1,2-dihydro-indol-(3Z)-ylidenemethyl]-4,5,6,7-tetrahydro-1H-indol-3-yl}-propyl)-piperazin-1-yl]-acetic acid], the IC50 came out at 10000 nM.

For the compound `CCOC(=O)CN1CCN(CCCc2c(/C=C3\C(=O)Nc4ccc(S(=O)(=O)NC)cc43)[nH]c3c2CCCC3)CC1` [[4-(3-{2-[5-Methylsulfamoyl-2-oxo-1,2-dihydro-indol-(3Z)-ylidenemethyl]-4,5,6,7-tetrahydro-1H-indol-3-yl}-propyl)-piperazin-1-yl]-acetic acid ethyl ester], the IC50 was found to be 900 nM.

Turning to `CNS(=O)(=O)c1ccc2c(c1)/C(=C/c1[nH]c3c(c1CCCN1CCN(CC(=O)O)CC1)CCCC3)C(=O)N2` [[4-(3-{2-[5-Methylsulfamoyl-2-oxo-1,2-dihydro-indol-(3Z)-ylidenemethyl]-4,5,6,7-tetrahydro-1H-indol-3-yl}-propyl)-piperazin-1-yl]-acetic acid], the IC50 is greater than 10000 nM.
